# Experimental data taken from patent publication US20080299098A1, “Broad-Spectrum Antibacterial and Antifungal Activity of Lactobacillus Johnsonii D115” (priority 2007, published 2008).
# Read-outs that look alike come from different tables or passages of the source.
# Key:
# [1] = system: Brachyspira hyodysenteriae; details: for Plate count: hydrogen peroxide 3100 μM
# [2] = system: Brachyspira pilosicoli; details: for Plate count: hydrogen peroxide 3300 μM
# [3] = hydrogen peroxide at approximately 3,000 μM, 2 h
smiles,measurement,setting,value
OO [hydrogen peroxide],Plate count,[1]; 0 hr,5.0 × 10^5 CFU per ml
same,Plate count,[1]; 2 hr,9 CFU per ml
same,reduction of count,[1]; [3],4 logs
same,Plate count,[2]; 0 hr,6.00 × 10^6 CFU per ml
same,Plate count,[2]; 2 hr,3.00 × 10^1 CFU per ml
same,reduction of count,[2]; [3],5 logs
